Experimental data reported in patent US11001590B2, “Pyrazolopyrimidine derivatives” (BAYER ANIMAL HEALTH GMBH, priority 2016, dated 2021).

Legend:
[1] = system: Dirofilaria immitis microfilariae; assay: In vitro assay 3: Dirofilaria immitis microfilariae (DIROIM L1), motility; conditions: 72 h, reduction of motility vs negative control, 72 h incubation
[2] = log P by HPLC on reversed phase columns (Method L0; [a] acidic, [b] neutral range)
Experimental: Calibration was done with straight-chain alkan-2-ones (with 3 to 16 carbon atoms) with known log P values (measurement of log P values using retention times with linear interpolation between successive alkanones). Lambda-max-values were determined using UV-spectra from 200 nm to 400 nm and the peak values of the chromatographic signals.

[3] = molecular target: C. elegans Slo-1a (Caenorhabditis elegans, UniProt Q95V25); assay: In vitro assay 1: C. elegans Slo-1a, action at a recombinant C. elegans CHO cell line (membrane potential measurement)
Chain of C. elegans Slo-1a (Q95V25 whole entry): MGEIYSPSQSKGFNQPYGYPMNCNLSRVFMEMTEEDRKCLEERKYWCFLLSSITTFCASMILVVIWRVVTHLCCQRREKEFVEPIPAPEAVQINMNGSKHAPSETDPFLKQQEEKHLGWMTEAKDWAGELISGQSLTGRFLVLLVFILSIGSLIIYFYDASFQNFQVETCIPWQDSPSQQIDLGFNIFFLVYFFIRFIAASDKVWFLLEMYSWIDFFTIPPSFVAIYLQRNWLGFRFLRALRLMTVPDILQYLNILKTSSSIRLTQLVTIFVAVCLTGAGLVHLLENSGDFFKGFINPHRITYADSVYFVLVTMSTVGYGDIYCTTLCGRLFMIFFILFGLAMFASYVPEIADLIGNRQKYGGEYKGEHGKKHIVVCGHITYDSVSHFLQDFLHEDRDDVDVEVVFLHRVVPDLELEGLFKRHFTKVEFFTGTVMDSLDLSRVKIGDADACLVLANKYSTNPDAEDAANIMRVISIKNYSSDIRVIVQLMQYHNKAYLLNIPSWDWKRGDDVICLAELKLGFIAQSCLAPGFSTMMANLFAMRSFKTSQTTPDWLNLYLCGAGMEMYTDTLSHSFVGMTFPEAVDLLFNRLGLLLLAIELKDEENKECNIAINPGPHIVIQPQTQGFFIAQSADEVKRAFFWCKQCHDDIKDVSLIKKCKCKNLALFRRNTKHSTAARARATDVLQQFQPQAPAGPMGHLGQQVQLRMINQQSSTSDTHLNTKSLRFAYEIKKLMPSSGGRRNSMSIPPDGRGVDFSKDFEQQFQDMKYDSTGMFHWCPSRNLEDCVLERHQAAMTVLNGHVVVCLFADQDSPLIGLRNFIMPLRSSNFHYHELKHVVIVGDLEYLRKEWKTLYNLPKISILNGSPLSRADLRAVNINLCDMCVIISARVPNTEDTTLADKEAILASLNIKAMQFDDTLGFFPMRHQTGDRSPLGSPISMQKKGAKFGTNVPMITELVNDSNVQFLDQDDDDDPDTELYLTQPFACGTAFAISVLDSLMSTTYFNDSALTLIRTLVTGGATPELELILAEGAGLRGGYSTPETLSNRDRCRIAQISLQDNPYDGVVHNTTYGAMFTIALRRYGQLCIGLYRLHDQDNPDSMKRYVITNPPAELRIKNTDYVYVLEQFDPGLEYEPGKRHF
Experimental: In Vitro Assay 1: C. Eleqans Slo-La—Action at a Recombinant C. elegans Cell Line
Cells were cultured at 37° C. and 5% CO2 in MEMalpha with Gutamax I (Invitrogen, Nr.: 32571), supplemented with 10% (v/v) heat inactivated fetal bovine serum (Invitrogen, Nr.: 10500), G418 (1 mg/ml, Invitrogen, Nr.: 10131). Cells were detached using Accutase (Sigma, Nr.: A6964).
Membrane Potential Measurements
Laboratory compound testing was performed on 384-well microtiter plates (MTPs, Greiner, Nr.: 781092). 8000 cells/well were plated onto 384-well MTPs and cultured for 20 to 24 hours at 37° C. and 5% CO2. After removal of the cell culture medium, the cells were washed once with tyrode (150 mM NaCl, 0.3 mM KCl, 2 mM CaCl2, 1 mM MgCl2, 0.8 mM NaH2PO4, 5 mM Glucose, 28 mM Hepes, pH 7.4) and then loaded with the voltage sensitive dye of the Membrane Potential Assay Kit diluted in tyrode for 1 h at room temperature.
After starting the measurement of fluorescence using a FLIPR Tetra (Molecular Devices, Exc. 510-545 nm, Emm. 565-625 nm), test compounds were added followed by the addition of KCl tyrode (final assay concentration: 70 mM KCl, 2 mM CaCl2, 1 mM MgCl2, 0.8 mM NaH2PO4, 5 mM Glucose, 28 mM Hepes, pH 7.4, including the voltage sensitive dye). The measurement was completed after 7 minutes.

[4] = system: Dirofilaria immitis third-stage larvae; assay: In vitro assay 4: Dirofilaria immitis (DIROIM L4), motility of larvae; conditions: 72 h

## Cc1nn2c(C3CC3)c(C(=O)N[C@H]3CCc4ccccc43)cnc2c1-c1cnn(CC2CC2)c1 [Example 446]
[1]
  EC50: < 10 µg/mL
[2]
  chromatographic logP: 3.15
[3]
  EC50: 12.6 nM

## Cc1nn2c(C(C)C)c(C(=O)N[C@H]3CCc4ccccc43)cnc2c1-n1cc(Cl)cn1 [Example 447]
[1]
  EC50: < 10 µg/mL
[2]
  chromatographic logP: 4.13
[3]
  EC50: 398 nM

## Cc1nn2c(C3CC3)c(C(=O)N[C@H]3CCOc4ccccc43)cnc2c1-c1cc(F)ccc1F [Example 448]
[1]
  EC50: < 0.1 µg/mL
[4]
  EC50: < 0.1 µg/mL
[2]
  chromatographic logP: 3.61
[3]
  EC50: 3.16 nM

## Cc1nn2c(C3CC3)c(C(=O)N[C@H]3CCOc4ccccc43)cnc2c1-c1cccc(C(F)(F)F)c1 [Example 449]
[1]
  EC50: < 0.1 µg/mL
[2]
  chromatographic logP: 4.31
[3]
  EC50: 6.31 nM

## Cc1nn2c(C3CC3)c(C(=O)N[C@H]3CCOc4ccccc43)cnc2c1-c1ccccc1F [Example 450]
[1]
  EC50: < 0.1 µg/mL
[4]
  EC50: < 0.1 µg/mL
[2]
  chromatographic logP: 3.45
[3]
  EC50: 3.16 nM

## COc1cccc(-c2c(C)nn3c(C4CC4)c(C(=O)N[C@H]4CCOc5ccccc54)cnc23)c1 [Example 454]
[1]
  EC50: < 0.1 µg/mL
[2]
  chromatographic logP: 3.5
[3]
  EC50: 3.98 nM

## Cc1nn2c(C3CC3)c(C(=O)N[C@H]3CCOc4ccccc43)cnc2c1-c1cccc(Cl)c1 [Example 455]
[1]
  EC50: < 0.1 µg/mL
[2]
  chromatographic logP: 4.13
[3]
  EC50: 6.31 nM

## Cc1nn2c(C3CC3)c(C(=O)N[C@H]3CCOc4ccccc43)cnc2c1-c1cccc(F)c1 [Example 456]
[1]
  EC50: < 0.1 µg/mL
[2]
  chromatographic logP: 3.71
[3]
  EC50: 6.31 nM

## Cc1nn2c(C3CC3)c(C(=O)N[C@H]3CCc4ccccc43)cnc2c1-c1cccc(N2CC(C#N)C2)c1 [Example 460]
[1]
  EC50: < 10 µg/mL
[2]
  chromatographic logP: 3.44
[3]
  EC50: 39.8 nM

## Cc1nn2c(C3CC3)c(C(=O)N[C@H]3CCOc4ccccc43)cnc2c1-c1cccc(OC(F)(F)F)c1 [Example 462]
[1]
  EC50: < 0.1 µg/mL
[2]
  chromatographic logP: 4.47
[3]
  EC50: 6.31 nM

## Cc1nn2c(C3CC3)c(C(=O)N[C@H]3CCOc4ccccc43)cnc2c1-c1ccc(F)cc1 [Example 463]
[1]
  EC50: < 0.1 µg/mL
[4]
  EC50: < 0.1 µg/mL
[2]
  chromatographic logP: 3.62
[3]
  EC50: 7.94 nM

## Cc1nn2c(C3CC3)c(C(=O)N[C@H]3CCOc4ccccc43)cnc2c1-c1cccc(N2CC(F)(F)C2)c1 [Example 464]
[1]
  EC50: < 0.1 µg/mL
[2]
  chromatographic logP: 3.92
[3]
  EC50: 3.16 nM

## Cc1nn2c(C3CC3)c(C(=O)N[C@H]3CCc4ccccc43)cnc2c1-c1cccc(N2CC(F)C2)c1 [Example 466]
[1]
  EC50: < 10 µg/mL
[2]
  chromatographic logP: 3.85
[3]
  EC50: 10 nM

## Cc1nn2c(C3CC3)c(C(=O)N[C@H]3CCOc4ccccc43)cnc2c1-c1cc(Cl)cc(Cl)c1 [Example 469]
[1]
  EC50: < 0.1 µg/mL
[2]
  chromatographic logP: 4.96
[3]
  EC50: 15.8 nM

## Cc1nn2c(C3CC3)c(C(=O)N[C@H]3CCOc4ccccc43)cnc2c1-c1ccc(F)c(F)c1 [Example 471]
[1]
  EC50: < 0.1 µg/mL
[2]
  chromatographic logP: 3.86
[3]
  EC50: 3.98 nM

## Cc1nn2c(C3CC3)c(C(=O)N[C@H]3CCOc4ccccc43)cnc2c1-c1cc(Cl)c(F)c(Cl)c1 [Example 476]
[1]
  EC50: < 1 µg/mL
[2]
  chromatographic logP: 4.95
[3]
  EC50: 6.31 nM

## Cc1nn2c(N(C)C)c(C(=O)N[C@H]3CCOc4ccccc43)cnc2c1-c1cc(Cl)cc(Cl)c1 [Example 520]
[1]
  EC50: < 0.1 µg/mL
[2]
  chromatographic logP: 4.92
[3]
  EC50: 7.94 nM

## Cc1nn2c(N3CCOCC3)c(C(=O)N[C@H]3CCOc4ccccc43)cnc2c1-c1cccc(Cl)c1F [Example 524]
[1]
  EC50: < 0.1 µg/mL
[4]
  EC50: < 0.1 µg/mL
[2]
  chromatographic logP: 4.69
[3]
  EC50: 1.26 nM

## Cc1nn2c(C3CC3)c(C(=O)N[C@H]3CCOc4ccccc43)cnc2c1-c1ccc(Cl)nc1 [Example 525]
[1]
  EC50: < 10 µg/mL
[2]
  chromatographic logP: 2.96
[3]
  EC50: 79.4 nM

## Cc1nn2c(C3CC3)c(C(=O)N[C@H]3CCOc4ccccc43)cnc2c1-c1ccnc(N2CCOCC2)c1F [Example 527]
[1]
  EC50: < 10 µg/mL
[2]
  chromatographic logP: 2.96
[3]
  EC50: 31.6 nM

## CC(=O)Nc1cc(-c2c(C)nn3c(C4CC4)c(C(=O)N[C@H]4CCOc5ccccc54)cnc23)ccn1 [Example 528]
[1]
  EC50: < 10 µg/mL
[2]
  chromatographic logP: 1.69
[3]
  EC50: 1260 nM

## Cc1ccccc1-c1c(C)nn2c(N3CCOCC3)c(C(=O)N[C@H]3CCOc4ccccc43)cnc12 [Example 536]
[1]
  EC50: < 0.1 µg/mL
[2]
  chromatographic logP: 4.18
[3]
  EC50: 5.01 nM

## Cc1nn2c(C3CC3)c(C(=O)N[C@H]3CCOc4ccccc43)cnc2c1-c1cc(F)cc(F)c1 [Example 537]
[1]
  EC50: < 0.1 µg/mL
[2]
  chromatographic logP: 3.99
[3]
  EC50: 5.01 nM
